Source: publication PMC8228141, “Antiprotozoal Nor-Triterpene Alkaloids from Buxus sempervirens L” (Antibiotics, 2021)
Read-outs that look alike come from different tables or passages of the source.

How the values were obtained:
[1] = test system: Plasmodium falciparum (Pf) (intraerythrocytic forms, NF54 strain); experiment: In vitro antiplasmodial activity; type: cell-based; conditions: NF54 strain; for Pf IC50: mean of n = 2 (fluctuation range) or * n = 3 (SD); for IC50: read-out: Pf IC50 (in parentheses) (converted)
Protocol: (§1) After isolation, all alkaloids were tested in vitro for antiplasmodial and antitrypanosomal activity against Plasmodium falciparum (Pf) and Trypanosoma brucei rhodesiense (Tbr). Furthermore, to assess their selectivity against the parasites, cytotoxicity against L6 rat skeletal myoblasts, as mammalian control cells, was tested (Table 4).
(§2) In vitro assays for the bioactivity of the isolated Buxus-alkaloids against Tbr (bloodstream trypomastigotes, STIB 900 strain), Trypanosoma cruzi (Tc) (amastigotes, Tulahuen C4 strain), Leishmania donovani (Ldo) (amastigotes, MHOM-ET-67/L82 strain) and Pf (intraerythrocytic forms, NF54 strain), and cytotoxicity tests against mammalian cells (L6-cell line from rat-skeletal myoblasts), were performed at the Swiss Tropical and Public Health Institute (Swiss TPH, Basel, Switzerland) according to established standard protocols.

[2] = test system: Trypanosoma brucei rhodesiense (Tbr) (bloodstream trypomastigotes, STIB 900 strain); experiment: In vitro antitrypanosomal activity; type: cell-based; conditions: STIB 900 strain; for Tbr IC50: mean of n = 2 (fluctuation range) or * n = 3 (SD); for IC50: read-out: Tbr IC50 (in parentheses) (converted)
Protocol: as §1
as §2, with “protocols. […] Such a pattern of activity was also observed in other studies.” for “protocols.”

[3] = test system: L6 rat skeletal myoblasts; experiment: Cytotoxicity against mammalian control cells; type: cell-based
Protocol: as §1, §2

[4] = test system: Trypanosoma brucei rhodesiense (Tbr) (bloodstream trypomastigotes, STIB 900 strain); design: method as in PMID 29738470; conditions: cited from earlier work
[5] = test system: Plasmodium falciparum (Pf) (intraerythrocytic forms, NF54 strain); design: method as in PMID 24838073; conditions: previous study; cited from earlier work

Compound	Pf IC50 [1]	IC50 [1]	Tbr IC50 [2]	IC50 [2]	Cytotox. IC50 [3]	IC50 [3]	in vitro activity against Tbr [4]	Cytotox. IC50 ([3]; L6 cell line, mean of n = 2 (fluctuation range) or * n = 3 (SD))	IC50 ([3]; L6 cell line, read-out: Cytotox. IC50 (in parentheses) (converted))	in vitro activity against Pf [5]
CN[C@@H](C)[C@H]1[C@H](O)C[C@@]2(C)[C@@H]3C=C[C@H]4C(C)(C)[C@@H](N(C)C)CC[C@@]45C[C@@]35CC[C@]12C [Compound 2, Cyclovirobuxeine-B]	1.07 ± 0.11 µg/mL	2600 nM	0.6 ± 0.03 µg/mL	1500 nM	14.7 ± 3.1 µg/mL	35500 nM	highly active and selective			
O-tigloylcyclovirobuxeine-B [Compound 1]	0.52 ± 0.14 µg/mL	1050 nM	1.6 ± 0.55 µg/mL	3200 nM				9.4 ± 3.8 µg/mL	19000 nM	strong and selective in vitro activity
